Where two headings read alike, the source gives them in different places.
Experiments:
rat OAT3 (rk1411) = target: T1, rat OAT3 (rk1411) (Rattus norvegicus, UniProt Q9R1U7); assay: Michaelis-Menten dynamic test of organic anion transport with rk1411 in oocyte; format: cell-based; settings: transport by rk1411 (rat OAT3) in Xenopus oocyte, FIG. 2, read-out: Km
T1 construct: cRNA (RNA complementary to cDNA) was prepared in vitro from the plasmid carrying the clone (rk1411); expressed in transfected cells; host or cells: Xenopus oocytes injected with rk1411 cRNA
T1 sequence (Q9R1U7 1-536): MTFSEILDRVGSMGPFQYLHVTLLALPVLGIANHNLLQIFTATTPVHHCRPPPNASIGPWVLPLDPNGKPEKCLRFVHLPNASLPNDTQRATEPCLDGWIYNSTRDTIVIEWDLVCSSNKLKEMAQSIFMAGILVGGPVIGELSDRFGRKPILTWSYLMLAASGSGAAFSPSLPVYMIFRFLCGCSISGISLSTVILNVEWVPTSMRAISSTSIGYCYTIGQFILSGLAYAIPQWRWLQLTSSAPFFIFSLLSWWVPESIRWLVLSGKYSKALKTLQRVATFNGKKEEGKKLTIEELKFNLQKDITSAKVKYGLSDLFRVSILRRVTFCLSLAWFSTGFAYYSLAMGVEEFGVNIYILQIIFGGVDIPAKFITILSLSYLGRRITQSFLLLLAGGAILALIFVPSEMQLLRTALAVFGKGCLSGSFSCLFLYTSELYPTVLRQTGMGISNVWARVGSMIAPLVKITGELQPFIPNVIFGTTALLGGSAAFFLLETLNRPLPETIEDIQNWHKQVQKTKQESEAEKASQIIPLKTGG
Excerpt: The organic anion transport with rk1411 was subjected to the Michaelis-Menten dynamic test.

hOAT3 [1] = target: T2, hOAT3 (Homo sapiens, UniProt Q8TCC7); assay: Uptake of radiolabeled compounds by Xenopus oocyte injected with hOAT3 cRNA; format: cell-based; settings: substrate 50 nM; one hour; versus control oocyte
T2 construct: cRNA (RNA complementary to cDNA) was prepared in vitro from the plasmid comprising the hOAT3 recovered above; expressed in transfected cells; host or cells: Xenopus oocytes injected with hOAT3 cRNA
T2 sequence (Q8TCC7 1-542 K271E/D366H): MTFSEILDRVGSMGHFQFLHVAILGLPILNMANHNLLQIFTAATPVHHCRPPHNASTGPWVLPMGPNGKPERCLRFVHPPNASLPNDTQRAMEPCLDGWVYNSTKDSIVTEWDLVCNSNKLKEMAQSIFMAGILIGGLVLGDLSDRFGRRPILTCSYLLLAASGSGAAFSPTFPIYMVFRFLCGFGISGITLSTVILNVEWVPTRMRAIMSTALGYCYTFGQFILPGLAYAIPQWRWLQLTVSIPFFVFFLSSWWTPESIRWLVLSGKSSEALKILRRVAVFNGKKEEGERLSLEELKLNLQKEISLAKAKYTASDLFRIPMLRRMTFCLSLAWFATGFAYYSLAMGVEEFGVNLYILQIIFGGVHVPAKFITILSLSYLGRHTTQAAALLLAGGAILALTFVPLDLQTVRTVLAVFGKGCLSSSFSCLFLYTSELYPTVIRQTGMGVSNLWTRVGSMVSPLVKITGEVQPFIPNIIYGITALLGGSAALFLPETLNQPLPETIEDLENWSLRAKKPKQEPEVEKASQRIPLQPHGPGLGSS
Procedure: By using T7 RNA polymerase, cRNA (RNA complementary to cDNA) was prepared in vitro from the plasmid comprising the hOAT3 recovered above by the method by Sekine, et al. (see Sekine, T., et al. J. Biol. Chem., Vol. 272, pp. 18526-9, 1997).
According to the already reported method of Sekine, et al. (Sekine, T., et al. J. Biol. Chem., Vol. 272, pp. 18526-9, 1997), the resulting hOAT3 cRNA was injected in the Xenopus oocyte; the oocyte was subjected to an uptake test with various radiolabeled organic anions and organic cations. The control oocyte cell (oocyte cell with no injection of hOAT3 cRNA) and the oocyte cell injected with hOAT3 cRNA were cultured in a buffer containing the following radiolabels for one hour, to assay the uptake of the radiolabels into the oocytes.
In each figure, open column expresses the case of the control oocyte used; and closed column expresses the case of the oocyte injected with hOAT3 cRNA.

hOAT3 [2] = target: T3, hOAT3 (Homo sapiens, UniProt Q8TCC7, D366H/K271E); assay: Inhibition of 3H-estrone sulfate uptake in oocyte injected with hOAT3 cRNA; format: cell-based; design: cRNA (RNA complementary to cDNA) was prepared in vitro from the plasmid comprising the hOAT3 recovered above; expressed in transfected cells; host or cells: Xenopus oocytes injected with hOAT3 cRNA; settings: 50 nM 3H-estrone sulfate; non-radiolabeled compound at 500 μM or the concentration shown in FIG. 19; one hour
T3 sequence (Q8TCC7 1-542 K271E/D366H): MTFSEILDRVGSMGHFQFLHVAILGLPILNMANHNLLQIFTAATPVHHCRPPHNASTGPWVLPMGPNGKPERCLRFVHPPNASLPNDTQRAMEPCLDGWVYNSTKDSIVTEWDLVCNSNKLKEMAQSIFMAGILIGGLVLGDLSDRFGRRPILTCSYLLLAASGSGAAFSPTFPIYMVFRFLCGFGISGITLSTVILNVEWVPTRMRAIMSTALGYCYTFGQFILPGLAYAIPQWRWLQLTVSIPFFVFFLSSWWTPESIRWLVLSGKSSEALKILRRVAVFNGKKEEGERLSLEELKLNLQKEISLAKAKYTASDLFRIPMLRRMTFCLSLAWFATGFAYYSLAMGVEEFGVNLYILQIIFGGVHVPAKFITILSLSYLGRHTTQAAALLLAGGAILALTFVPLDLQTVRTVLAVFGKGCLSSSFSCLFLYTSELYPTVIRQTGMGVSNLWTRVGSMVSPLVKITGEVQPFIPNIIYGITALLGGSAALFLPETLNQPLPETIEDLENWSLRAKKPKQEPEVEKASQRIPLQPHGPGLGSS

hOAT3 [3] = target: T3, hOAT3; settings: transport by hOAT3 in Xenopus oocyte
Excerpt: Then, the hOAT3 transport of organic anions was examined at the Michaelis-Menten kinetic test.

[4] = substrate: CN(Cc1cnc2nc(N)nc(N)c2n1)c1ccc(C(=O)N[C@@H](CCC(=O)O)C(=O)O)cc1; assay: cells, lysate or membranes; settings: other: transport by hOAT3 in Xenopus oocyte

Molecule	Km (rat OAT3 (rk1411); listed as Estrone sulfate)	Km (rat OAT3 (rk1411))	uptake of radiolabeled compound by oocyte with hOAT3 expression (hOAT3 [1])	inhibition of the transport of 3H-estrone sulfate with hOAT3 (hOAT3 [2])	Km (hOAT3 [3])	Km [4]
estrone sulfate	2.34 ± 0.2 µM	2.3 µM	takes up	significantly inhibited	3.08 µM	–
hOAT3 (Homo sapiens; D366H/K271E) (protein) MTFSEILDRVGSMGHFQFLHVAILGLPILNMANHNLLQIFTAATPVHHCRPPHNASTGPWVLPMGPNGKPERCLRFVHPPNASLPNDTQRAMEPCLDGWVYNSTKDSIVTEWDLVCNSNKLKEMAQSIFMAGILIGGLVLGDLSDRFGRRPILTCSYLLLAASGSGAAFSPTFPIYMVFRFLCGFGISGITLSTVILNVEWVPTRMRAIMSTALGYCYTFGQFILPGLAYAIPQWRWLQLTVSIPFFVFFLSSWWTPESIRWLVLSGKSSEALKILRRVAVFNGKKEEGERLSLEELKLNLQKEISLAKAKYTASDLFRIPMLRRMTFCLSLAWFATGFAYYSLAMGVEEFGVNLYILQIIFGGVHVPAKFITILSLSYLGRHTTQAAALLLAGGAILALTFVPLDLQTVRTVLAVFGKGCLSSSFSCLFLYTSELYPTVIRQTGMGVSNLWTRVGSMVSPLVKITGEVQPFIPNIIYGITALLGGSAALFLPETLNQPLPETIEDLENWSLRAKKPKQEPEVEKASQRIPLQPHGPGLGSS	–	–	–	–	–	2.22 µM
